Legend:
[1] = DRUGMATRIX: Phorbol Ester radioligand binding (ligand: [3H] PDBu); type: cell membranes, Mus musculus, ICR, Brain, Membrane; settings: Not Active = under 50% inhibition at 10 µM
[2] = DRUGMATRIX: Glutamate, Kainate radioligand binding (ligand: [3H] Kainic acid); type: cell membranes, Rattus norvegicus, Wistar, Brain, Membrane; settings: Not Active = under 50% inhibition at 10 µM
B2 bradykinin receptor = molecular target: T1, B2 bradykinin receptor (Homo sapiens, UniProt P30411); type: cell membranes, Membrane; settings: chem-1; note: in other assays of this panel Not Active means under 50% inhibition at 10 µM
T1 sequence (P30411 whole entry): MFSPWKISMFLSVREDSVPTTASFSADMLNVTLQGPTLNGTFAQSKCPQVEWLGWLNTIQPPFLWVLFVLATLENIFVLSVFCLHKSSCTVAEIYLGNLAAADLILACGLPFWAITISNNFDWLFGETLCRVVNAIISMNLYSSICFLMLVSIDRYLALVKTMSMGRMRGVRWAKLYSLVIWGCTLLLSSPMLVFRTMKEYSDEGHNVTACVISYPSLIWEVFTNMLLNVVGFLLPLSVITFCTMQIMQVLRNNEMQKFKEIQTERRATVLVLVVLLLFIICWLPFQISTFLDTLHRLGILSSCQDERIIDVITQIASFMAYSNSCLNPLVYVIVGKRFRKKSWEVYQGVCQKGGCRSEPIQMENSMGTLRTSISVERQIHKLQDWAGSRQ

Cytochrome P450 3A4 = Cytochrome P450 3A4 (Homo sapiens, UniProt P08684); settings: bti-tn-5b1-4; note: in other assays of this panel Not Active means under 50% inhibition at 10 µM
Chain of Cytochrome P450 3A4 (P08684 whole entry): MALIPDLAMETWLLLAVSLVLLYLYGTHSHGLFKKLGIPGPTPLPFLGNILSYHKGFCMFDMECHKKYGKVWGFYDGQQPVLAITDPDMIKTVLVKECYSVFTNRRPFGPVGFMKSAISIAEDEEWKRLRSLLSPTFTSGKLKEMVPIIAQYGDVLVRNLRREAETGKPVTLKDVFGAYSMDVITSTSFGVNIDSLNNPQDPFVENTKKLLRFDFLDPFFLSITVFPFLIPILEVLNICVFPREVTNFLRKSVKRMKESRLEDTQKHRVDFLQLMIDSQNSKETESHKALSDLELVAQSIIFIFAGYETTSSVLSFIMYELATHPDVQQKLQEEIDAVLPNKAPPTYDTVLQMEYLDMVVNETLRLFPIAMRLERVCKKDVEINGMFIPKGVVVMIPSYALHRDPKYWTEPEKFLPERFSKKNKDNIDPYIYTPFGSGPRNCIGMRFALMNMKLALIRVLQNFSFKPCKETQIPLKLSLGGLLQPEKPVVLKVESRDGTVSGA

[3] = molecular target: T2, C-C chemokine receptor type 4 (Homo sapiens, UniProt P51679); type: cell membranes, Chem-1, Membrane; settings: chem-1; note: in other assays of this panel Not Active means under 50% inhibition at 10 µM
T2 sequence (P51679 whole entry): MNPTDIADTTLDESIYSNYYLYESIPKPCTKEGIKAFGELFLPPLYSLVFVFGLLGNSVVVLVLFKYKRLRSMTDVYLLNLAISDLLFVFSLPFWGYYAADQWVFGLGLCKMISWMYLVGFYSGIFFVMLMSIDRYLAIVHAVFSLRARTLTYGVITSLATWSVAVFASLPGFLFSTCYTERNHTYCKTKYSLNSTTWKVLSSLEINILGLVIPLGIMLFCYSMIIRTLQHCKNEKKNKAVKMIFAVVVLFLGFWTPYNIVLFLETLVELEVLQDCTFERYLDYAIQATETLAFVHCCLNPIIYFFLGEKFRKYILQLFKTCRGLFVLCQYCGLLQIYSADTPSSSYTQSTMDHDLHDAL

[4] = molecular target: 5-hydroxytryptamine receptor 4 (Cavia porcellus, UniProt O70528); type: cell membranes, Dunkin-Hartley, Striatum, Membrane; note: in other assays of this panel Not Active means under 50% inhibition at 10 µM
Chain of 5-hydroxytryptamine receptor 4 (O70528 whole entry): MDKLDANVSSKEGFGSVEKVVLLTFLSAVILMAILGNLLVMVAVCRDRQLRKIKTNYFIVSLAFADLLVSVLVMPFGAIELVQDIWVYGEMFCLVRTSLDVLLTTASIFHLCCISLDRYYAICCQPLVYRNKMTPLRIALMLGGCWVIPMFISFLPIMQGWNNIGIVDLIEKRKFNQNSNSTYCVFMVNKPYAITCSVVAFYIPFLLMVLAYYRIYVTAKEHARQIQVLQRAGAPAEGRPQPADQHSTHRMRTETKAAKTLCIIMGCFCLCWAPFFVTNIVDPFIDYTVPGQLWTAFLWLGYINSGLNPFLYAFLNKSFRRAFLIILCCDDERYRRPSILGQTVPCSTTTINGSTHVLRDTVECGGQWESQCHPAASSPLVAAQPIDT

[5] = molecular target: Platelet-activating factor receptor (Homo sapiens, UniProt P25105); type: tissue-based; note: in other assays of this panel Not Active means under 50% inhibition at 10 µM
Chain of Platelet-activating factor receptor (P25105 whole entry): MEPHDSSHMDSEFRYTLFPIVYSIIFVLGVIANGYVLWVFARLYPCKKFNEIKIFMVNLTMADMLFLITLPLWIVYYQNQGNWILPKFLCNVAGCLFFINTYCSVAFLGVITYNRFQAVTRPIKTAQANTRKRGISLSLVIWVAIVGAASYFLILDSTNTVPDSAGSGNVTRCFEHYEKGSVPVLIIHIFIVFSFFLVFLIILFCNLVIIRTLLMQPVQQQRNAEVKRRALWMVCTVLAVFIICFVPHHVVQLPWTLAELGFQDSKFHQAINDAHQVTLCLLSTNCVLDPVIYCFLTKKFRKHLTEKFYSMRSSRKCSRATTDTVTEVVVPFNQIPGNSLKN

Cytochrome P450 2C19 = Cytochrome P450 2C19 (Homo sapiens, UniProt P33261); settings: bti-tn-5b1-4; note: in other assays of this panel Not Active means under 50% inhibition at 10 µM
Chain of Cytochrome P450 2C19 (P33261 whole entry): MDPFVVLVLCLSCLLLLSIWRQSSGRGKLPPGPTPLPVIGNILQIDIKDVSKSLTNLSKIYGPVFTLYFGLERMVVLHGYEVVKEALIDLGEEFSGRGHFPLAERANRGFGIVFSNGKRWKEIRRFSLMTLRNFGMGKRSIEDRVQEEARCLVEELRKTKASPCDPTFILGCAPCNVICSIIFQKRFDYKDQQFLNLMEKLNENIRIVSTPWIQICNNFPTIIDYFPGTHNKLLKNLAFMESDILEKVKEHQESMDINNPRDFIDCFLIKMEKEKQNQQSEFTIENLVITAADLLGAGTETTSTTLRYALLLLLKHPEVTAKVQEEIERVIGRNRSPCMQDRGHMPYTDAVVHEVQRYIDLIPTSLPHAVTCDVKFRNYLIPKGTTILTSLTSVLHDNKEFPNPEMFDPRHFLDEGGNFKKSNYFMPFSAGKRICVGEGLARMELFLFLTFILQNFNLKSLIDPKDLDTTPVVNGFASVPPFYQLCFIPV

c1ccc(Nc2ccc(Nc3ccccc3)cc2)cc1
Not Active: IC50 [1] | Ki [1] | IC50 [2] | Ki [2] | IC50 (B2 bradykinin receptor) | IC50 (Cytochrome P450 3A4) | Ki (Cytochrome P450 3A4) | IC50 [3] | IC50 [4] | IC50 [5] | IC50 (Cytochrome P450 2C19) | Ki (Cytochrome P450 2C19)

O=c1oc2ccccc2c(O)c1Cc1c(O)c2ccccc2oc1=O [DICUMAROL]
Not Active: IC50 [1] | Ki [1] | IC50 [2] | Ki [2] | IC50 (B2 bradykinin receptor) | IC50 (Cytochrome P450 3A4) | Ki (Cytochrome P450 3A4) | IC50 [3] | IC50 [4] | IC50 [5] | IC50 (Cytochrome P450 2C19) | Ki (Cytochrome P450 2C19)

Cc1onc(O)c1CC(N)C(=O)O (racemic) [(R,S)-AMPA]
Not Active: IC50 [1] | Ki [1] | IC50 [2] | Ki [2] | IC50 (B2 bradykinin receptor) | IC50 (Cytochrome P450 3A4) | Ki (Cytochrome P450 3A4) | IC50 [3] | IC50 [4] | IC50 [5] | IC50 (Cytochrome P450 2C19) | Ki (Cytochrome P450 2C19)

CC1=C2C(=CO[C@H](C)[C@H]2C)C(O)=C(C(=O)O)C1=O [CITRININ]
Not Active: IC50 [1] | Ki [1] | IC50 [2] | Ki [2] | IC50 (B2 bradykinin receptor) | IC50 (Cytochrome P450 3A4) | Ki (Cytochrome P450 3A4) | IC50 [3] | IC50 [4] | IC50 [5] | IC50 (Cytochrome P450 2C19) | Ki (Cytochrome P450 2C19)

Nc1nc2c(ncn2COCCO)c(=O)[nH]1 [ACYCLOVIR]
Not Active: IC50 [1] | Ki [1] | IC50 [2] | Ki [2] | IC50 (B2 bradykinin receptor) | IC50 (Cytochrome P450 3A4) | Ki (Cytochrome P450 3A4) | IC50 [3] | IC50 [4] | IC50 [5] | IC50 (Cytochrome P450 2C19) | Ki (Cytochrome P450 2C19)

CCOC(=O)C1=C(COCCN)NC(C)=C(C(=O)OC)C1c1ccccc1Cl (stereo unspecified) [AMLODIPINE]
Not Active: IC50 [1] | Ki [1] | IC50 [2] | Ki [2] | IC50 (B2 bradykinin receptor) | IC50 (Cytochrome P450 3A4) | Ki (Cytochrome P450 3A4) | IC50 [3] | IC50 [4] | IC50 [5] | IC50 (Cytochrome P450 2C19) | Ki (Cytochrome P450 2C19)

O=C1CC[C@@H](N2C(=O)c3ccccc3C2=O)C(=O)N1
Not Active: IC50 [1] | Ki [1] | IC50 [2] | Ki [2] | IC50 (B2 bradykinin receptor) | IC50 (Cytochrome P450 3A4) | Ki (Cytochrome P450 3A4) | IC50 [3] | IC50 [4] | IC50 [5] | IC50 (Cytochrome P450 2C19) | Ki (Cytochrome P450 2C19)

CC(C)C(Br)C(=O)NC(N)=O (stereo unspecified) [BROMISOVALUM]
Not Active: IC50 [1] | Ki [1] | IC50 [2] | Ki [2] | IC50 (B2 bradykinin receptor) | IC50 (Cytochrome P450 3A4) | Ki (Cytochrome P450 3A4) | IC50 [3] | IC50 [4] | IC50 [5] | IC50 (Cytochrome P450 2C19) | Ki (Cytochrome P450 2C19)

Cc1ccccc1N1C(=O)c2cc(S(N)(=O)=O)c(Cl)cc2NC1C (stereo unspecified) [METOLAZONE]
Not Active: IC50 [1] | Ki [1] | IC50 [2] | Ki [2] | IC50 (B2 bradykinin receptor) | IC50 (Cytochrome P450 3A4) | Ki (Cytochrome P450 3A4) | IC50 [3] | IC50 [4] | IC50 [5] | IC50 (Cytochrome P450 2C19) | Ki (Cytochrome P450 2C19)

C1CCC(C(CC2CCCCN2)C2CCCCC2)CC1 (stereo unspecified) [PERHEXILINE]
Not Active: IC50 [1] | Ki [1] | IC50 [2] | Ki [2] | IC50 (B2 bradykinin receptor) | IC50 (Cytochrome P450 3A4) | Ki (Cytochrome P450 3A4) | IC50 [3] | IC50 [4] | IC50 [5] | IC50 (Cytochrome P450 2C19) | Ki (Cytochrome P450 2C19)

Cc1ccc2cc3c(ccc4ccccc43)c3c2c1CC3 [3-METHYLCHOLANTHRENE]
Not Active: IC50 [1] | Ki [1] | IC50 [2] | Ki [2] | IC50 (B2 bradykinin receptor) | IC50 (Cytochrome P450 3A4) | Ki (Cytochrome P450 3A4) | IC50 [3] | IC50 [4] | IC50 [5] | IC50 (Cytochrome P450 2C19) | Ki (Cytochrome P450 2C19)

Nc1nc2c(ncn2CCC(CO)CO)c(=O)[nH]1 [PENCICLOVIR]
Not Active: IC50 [1] | Ki [1] | IC50 [2] | Ki [2] | IC50 (B2 bradykinin receptor) | IC50 (Cytochrome P450 3A4) | Ki (Cytochrome P450 3A4) | IC50 [3] | IC50 [4] | IC50 [5] | IC50 (Cytochrome P450 2C19) | Ki (Cytochrome P450 2C19)

CN(C)C(=O)Oc1cc(OC(=O)N(C)C)cc(C(O)CNC(C)(C)C)c1 (stereo unspecified) [BAMBUTEROL]
Not Active: IC50 [1] | Ki [1] | IC50 [2] | Ki [2] | IC50 (B2 bradykinin receptor) | IC50 (Cytochrome P450 3A4) | Ki (Cytochrome P450 3A4) | IC50 [3] | IC50 [4] | IC50 [5] | IC50 (Cytochrome P450 2C19) | Ki (Cytochrome P450 2C19)

Nc1nc(N)nc(-c2cc(Cl)ccc2Cl)n1.O=C(O)/C=C\C(=O)O [IRSOGLADINE MALEATE]
Not Active: IC50 [1] | Ki [1] | IC50 [2] | Ki [2] | IC50 (B2 bradykinin receptor) | IC50 (Cytochrome P450 3A4) | Ki (Cytochrome P450 3A4) | IC50 [3] | IC50 [4] | IC50 [5] | IC50 (Cytochrome P450 2C19) | Ki (Cytochrome P450 2C19)

Cc1ccc(-c2cc(C(F)(F)F)nn2-c2ccc(S(N)(=O)=O)cc2)cc1 [CELECOXIB]
Not Active: IC50 [1] | Ki [1] | IC50 [2] | Ki [2] | IC50 (B2 bradykinin receptor) | IC50 (Cytochrome P450 3A4) | Ki (Cytochrome P450 3A4) | IC50 [3] | IC50 [4] | IC50 [5] | IC50 (Cytochrome P450 2C19) | Ki (Cytochrome P450 2C19)

CCC1(c2ccc(N)cc2)CCC(=O)NC1=O (stereo unspecified) [AMINOGLUTETHIMIDE]
Not Active: IC50 [1] | Ki [1] | IC50 [2] | Ki [2] | IC50 (B2 bradykinin receptor) | IC50 (Cytochrome P450 3A4) | Ki (Cytochrome P450 3A4) | IC50 [3] | IC50 [4] | IC50 [5] | IC50 (Cytochrome P450 2C19) | Ki (Cytochrome P450 2C19)

Cc1ccc(/N=C/N(C)/C=N/c2ccc(C)cc2C)c(C)c1 [AMITRAZ]
Not Active: IC50 [1] | Ki [1] | IC50 [2] | Ki [2] | IC50 (B2 bradykinin receptor) | IC50 (Cytochrome P450 3A4) | Ki (Cytochrome P450 3A4) | IC50 [3] | IC50 [4] | IC50 [5] | IC50 (Cytochrome P450 2C19) | Ki (Cytochrome P450 2C19)

C[C@H](CS)C(=O)N1CCC[C@H]1C(=O)O [CAPTOPRIL]
Not Active: IC50 [1] | Ki [1] | IC50 [2] | Ki [2] | IC50 (B2 bradykinin receptor) | IC50 (Cytochrome P450 3A4) | Ki (Cytochrome P450 3A4) | IC50 [3] | IC50 [4] | IC50 [5] | IC50 (Cytochrome P450 2C19) | Ki (Cytochrome P450 2C19)

Clc1cccc(Cl)c1NC1=NCCN1 [CLONIDINE]
Not Active: IC50 [1] | Ki [1] | IC50 [2] | Ki [2] | IC50 (B2 bradykinin receptor) | IC50 (Cytochrome P450 3A4) | Ki (Cytochrome P450 3A4) | IC50 [3] | IC50 [4] | IC50 [5] | IC50 (Cytochrome P450 2C19) | Ki (Cytochrome P450 2C19)

CCCCN1CCCC[C@H]1C(=O)Nc1c(C)cccc1C [LEVOBUPIVACAINE]
Not Active: IC50 [1] | Ki [1] | IC50 [2] | Ki [2] | IC50 (B2 bradykinin receptor) | IC50 (Cytochrome P450 3A4) | Ki (Cytochrome P450 3A4) | IC50 [3] | IC50 [4] | IC50 [5] | IC50 (Cytochrome P450 2C19) | Ki (Cytochrome P450 2C19)

OC(Cn1cncn1)(Cn1cncn1)c1ccc(F)cc1F [FLUCONAZOLE]
Not Active: IC50 [1] | Ki [1] | IC50 [2] | Ki [2] | IC50 (B2 bradykinin receptor) | IC50 (Cytochrome P450 3A4) | Ki (Cytochrome P450 3A4) | IC50 [3] | IC50 [4] | IC50 [5] | IC50 (Cytochrome P450 2C19) | Ki (Cytochrome P450 2C19)

CCCC1O[C@@H]2C[C@H]3[C@@H]4CCC5=CC(=O)C=C[C@]5(C)[C@H]4[C@@H](O)C[C@]3(C)[C@]2(C(=O)CO)O1 (stereo partly specified) [BUDESONIDE]
Not Active: IC50 [1] | Ki [1] | IC50 [2] | Ki [2] | IC50 (B2 bradykinin receptor) | IC50 (Cytochrome P450 3A4) | Ki (Cytochrome P450 3A4) | IC50 [3] | IC50 [4] | IC50 [5] | IC50 (Cytochrome P450 2C19) | Ki (Cytochrome P450 2C19)

Cc1cc(C2CCCCC2)n(O)c(=O)c1 [CICLOPIROX]
Not Active: IC50 [1] | Ki [1] | IC50 [2] | Ki [2] | IC50 (B2 bradykinin receptor) | IC50 (Cytochrome P450 3A4) | Ki (Cytochrome P450 3A4) | IC50 [3] | IC50 [4] | IC50 [5] | IC50 (Cytochrome P450 2C19) | Ki (Cytochrome P450 2C19)
